Entries after “also recorded” stand apart in the source; their conditions may differ.
Experiments:
[1] = tested on: SUPM2 cells (naturally SHP-1+/+); assay: Cell proliferation assay with ALCL cell lines (Alamar Blue), PNKP inhibition; type: cell-based; conditions: SUPM2 (SHP-1+/+), approximately 10 μM, 12-16 days
Description: (§1) Karpas 299 or SUPM2 cells were plated in 96-well format at a concentration of 5,000 cells/100 μL in complete RPMI. Increasing concentrations of the PNKP inhibitor A12B4C3 was added to each well at a constant concentration of DMSO and left to incubate for 12-16 days. 11 μL of 440 μM Alamar Blue was then loaded onto the plates and left to incubate for 24-48 hours after which fluorescence was determined as described above.

[2] = tested on: Karpas 299 cells (naturally SHP-1−/−); assay: as above; type: cell-based; conditions: Karpas 299 (SHP-1−/−), approximately 10 μM, 12-16 days
Description: as §1

[3] = tested on: PC3 cells reconstituted with WT PTEN or p.K289E; assay: Survival of PC3 cells in response to PNKP inhibition; type: cell-based; conditions: WT PTEN and p.K289E reconstituted PC3, 12-16 days
Description: (§2) The effect of survival of simultaneous disruption of two proteins was conducted using the clonogenic survival assay. To allow cells time to adhere to the plates, cells were seeded 24 h in advance. Cells were treated with the PNKP inhibitor A12B4C3 for 9-14 consecutive days in triplicate at 0 μM, 0.1 μM, 1 μM, and 10 μM final concentration where 100 cells were plated for the 0 μM, 0.1 μM and 1 μM concentration groups and 300 cells in the 10 μM concentration group. Colonies were then stained with a crystal violet containing 20% methanol for one hour after which the plates were washed in warm water and left to dry overnight. Colonies of 50+ cells were then counted using an automated colony counter (Oxford Optronix, Oxford, UK).
(§3) To investigate the feasibility of taking advantage of the newly identified partnership between PTEN and PNKP, we subjected the prostate cancer cell line, PC3 (naturally PTEN^−/−) to an increasing concentration of the PNKP inhibitor A12B4C3 (3) over a period of 12-16 days.

[4] = tested on: PC3 cell lines lacking functional PTEN (p.R55fs*1, WT RAD51, p.BABE.puro, p.C124S, PC3 parental); assay: as above; type: cell-based; conditions: doses ≥10 μM, 12-16 days
Description: as §2, §3

[5] = tested on: HCT116 cells; assay: Colony-forming assay with γ-radiation (synthetic sickness); type: cell-based
Description: as §2
For the indicated colony-forming assays, cells were treated with 0, 1, 2, 4, 6, or 8 Gy of γ-radiation (^60Co Gammacell; Atomic Energy of Canada Limited, Ottawa, Canada).
These HCT116 cells were then subjected to additional testing to determine if disruption of PNKP in PTEN negative cells would hypersensitize these cells to ionizing radiation. These assays to determine ‘synthetic sickness’ were done using […] A12B4C3, which was added to the cells 24 h before irradiation in a colony-forming assay. After one day the cells were subjected to 0, 1, 2, 4, 6, or 8 Gy of γ-radiation. […]

[6] = tested on: HCT116 PTEN wildtype cells (HCT116 parental and Neo124 vector only); assay: Colony forming assay under PNKP inhibition; type: cell-based; conditions: PTEN proficient HCT116, increasing concentrations
Description: as §2

[7] = tested on: HCT116 PTEN deleted cells (#22 and #35); assay: Colony forming assay under PNKP inhibition; type: cell-based; conditions: PTEN deleted HCT116, increasing concentrations
Description: as §2

[8] = tested on: A549(Scramble) and A549δPNKP cells; assay: Mode of cell death determination (Hoescht 33342, Ethidium Homodimer III, Annexin V-FITC triple stain); type: cell-based, human; conditions: 100 μM, 24 to 72 hours
Description: A549(Scramble) or A549δPNKP cells were grown on coverslips in complete DMEM/F12 and were either transfected with ASN or SHP-1. Another control subjected these cell lines to 100 μM 5-(p-Bromobenzylidine)-α-isopropyl-4-oxo-2-thioxo-3-thiozolidineacetic acid (BH3I-1, Sigma-Aldrich, Oakville, ON), which is a known apoptosis inducer. The cells were grown under each condition for the indicated length of time before being subjected to a triple stain of Hoescht 33342, Ethidium Homodimer III and Annexin V-FITC (Biotium, Hayward, Calif.). Hoescht 33342 is an uncharged DNA stain that will stain the nuclei of healthy and non-healthy cells alike, however, Ethidium Homodimer III is a highly positively charged DNA stain that cannot readily enter cells unless there is a loss of membrane integrity. […]
To identify the mechanism in which cells undergo synthetic lethality upon simultaneous disruption of SHP-1 and PNKP, A549(Scramble) and A549δPNKP cells were grown on coverslips and transiently transfected with ASN or SHP-1 siRNA (FIGS. 21A and 21C, respectively). […] Cells were then simultaneously stained with Hoescht 33342, EthidiumHomodimer III and Annexin V-FITC, which fluoresce at different wavelengths (absorbance/emission; 350/461 nm, 528/617 nm, and 492/514 nm, respectively). […]

Compound | survival [1] | survival [2] | survival [3] | survival [4] | sensitivity to ionizing radiation ([5]; PNKP independently disrupted (PTEN proficient HCT116), 2 M A12B4C3 added 24 h before 0-8 Gy γ-radiation) | sensitivity to ionizing radiation ([5]; PTEN negative HCT116, 2 M A12B4C3 added 24 h before 0-8 Gy γ-radiation) | survival under PNKP inhibition [6] | survival under PNKP inhibition [7] | apoptotic cells [8]
CCCCCCCCCCC(O)C1C=CC2C(=O)N(c3ccccc3)C(=O)C2N1Nc1ccc([N+](=O)[O-])cc1 (stereo not drawn) [A12B4C3, 2-(1-hydroxyundecyl)-1-(4-nitrophenylamino)-6-phenyl-6,7a-dihydro-1H-pyrrolo[3,4-b]pyridine-5,7(2H,4aH)-dione] | remain viable | marked decrease in survival | lethality under PNKP inhibition was rescued | marked decrease in survival | increase in sensitivity to ionizing radiation | increase in the sensitivity to ionizing radiation | no effect | sensitive to PNKP disruption | 
CC(C)C(C(=O)O)N1C(=O)C(=Cc2ccc(Br)cc2)SC1=S (stereo not drawn) [BH3I-1, 5-(p-Bromobenzylidine)-α-isopropyl-4-oxo-2-thioxo-3-thiozolidineacetic acid] |  |  |  |  |  |  |  |  | substantial increase in the occurrence of apoptotic cells; also recorded: increase in apoptotic cells beginning at 24 hours and continuing on through 72 hours

From patent publication US10087448B2, “Synthetic lethality in cancer” (The Governors of the University of Alberta, priority 2010, dated 2018)
